This passage reports IC50 and GI50 results from patent publication US9580390B2, “Indazole compounds as kinase inhibitors and method of treating cancer with same” (University Health Network, priority 2011, dated 2017).

One test addresses T1, human TTK (Homo sapiens, UniProt P33981).
T1 construct: amino terminal GST fusion of full length human TTK; purchased Invitrogen
T1 sequence (P33981 1-857): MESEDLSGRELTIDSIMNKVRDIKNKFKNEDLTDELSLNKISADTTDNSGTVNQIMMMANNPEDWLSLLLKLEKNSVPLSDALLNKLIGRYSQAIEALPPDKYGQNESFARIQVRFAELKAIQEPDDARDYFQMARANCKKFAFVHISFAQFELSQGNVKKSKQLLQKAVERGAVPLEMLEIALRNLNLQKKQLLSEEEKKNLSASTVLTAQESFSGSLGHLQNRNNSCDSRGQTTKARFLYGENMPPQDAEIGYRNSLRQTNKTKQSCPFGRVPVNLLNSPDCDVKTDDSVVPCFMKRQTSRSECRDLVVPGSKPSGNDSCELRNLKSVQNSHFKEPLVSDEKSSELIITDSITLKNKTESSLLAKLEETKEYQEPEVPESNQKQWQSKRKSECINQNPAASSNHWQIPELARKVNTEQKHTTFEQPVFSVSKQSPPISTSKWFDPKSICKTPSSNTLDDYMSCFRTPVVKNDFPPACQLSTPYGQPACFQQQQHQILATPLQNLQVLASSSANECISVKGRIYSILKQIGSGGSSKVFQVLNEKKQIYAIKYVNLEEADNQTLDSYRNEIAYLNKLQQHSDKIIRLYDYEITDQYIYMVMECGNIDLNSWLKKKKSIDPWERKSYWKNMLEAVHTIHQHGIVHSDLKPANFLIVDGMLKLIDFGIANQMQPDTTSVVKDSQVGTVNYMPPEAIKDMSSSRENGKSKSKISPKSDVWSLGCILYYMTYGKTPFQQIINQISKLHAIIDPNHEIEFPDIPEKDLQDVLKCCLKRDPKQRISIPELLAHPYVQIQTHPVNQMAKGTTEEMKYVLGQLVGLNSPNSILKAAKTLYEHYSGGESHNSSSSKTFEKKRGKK
Kind of test: TTK inhibition assay (indirect ELISA). The following applies: read-out: TTK IC50 Range. In kind it is biochemical. On the technique in general: In an ELISA, binding on a coated surface is turned into a signal by an enzyme label.

A further test relates to Breast cancer cells. Kind of test: Cancer cell line growth inhibition (SRB assay). The settings on record: Homo sapiens; MDA-MB-468; read-out: Cancer Cell Line GI50 Range MDA-MB-468. In kind it is cell-based. For orientation: Sulforhodamine B stains cellular protein and so reports cell mass.
The test system of test [1] is colon cancer cells (HCT116). Kind of test: Cancer cell line growth inhibition (SRB assay). In kind it is cell-based. The settings on record: Homo sapiens, HCT-116; read-out: Cancer Cell Line GI50 Range HCT116.
The test system of test [2] is ovarian cancer cells (PA-1). The test is described as follows: Cancer cell line growth inhibition (SRB assay). In kind it is cell-based. The settings on record: Homo sapiens, PA-1; read-out: Cancer Cell Line GI50 Range PA-1.
Procedure: Breast cancer cells (MDA-MB-231), colon cancer cells (HCT116) and ovarian cancer cells (PA-1) were seeded (1000 to 4000 in 80 μl per well depending on the cell growth rate) into 96 well plates 24 hours before compound overlay. Compounds were prepared as 10 mM stock solutions in 100% DMSO which were diluted with DMEM (Dulbecco's Modified Eagle's Medium) cell growth Medium (Invitrogen, Burlington, ON, Canada) containing 10% FBS (Fetal Bovine Serum) to concentrations ranging from 50 nM to 250 μM. Aliquots (20 μl) from each concentration were overlaid to 80 μl of the pre-seeded cells in the 96 well plates to make final concentrations of 10 nM to 50 μM. The cells were cultured for 5 days before the Sulforhodamine B assay (SRB) was performed to determine the compound's cell growth inhibition activity.
Sulforhodamine B (purchased from Sigma, Oakville, ON, Canada) is a water-soluble dye that binds to the basic amino acids of the cellular proteins. Thus, colorimetric measurement of the bound dye provides an estimate of the total protein mass that is related to the cell number. the cells are fixed in situ by gently aspirating off the culture media and adding 50 μl ice cold 10% Trichloroacetic Acid (TCA) per well and incubate at 4° C. for 30-60 min. The plates are washed with H2O five times and allowed to air dry for 5 min. Addition of 50 μl 0.4% (w/v) SRB solution in 1% (v/v) acetic acid to each well and incubation for 30 min at RT completes the staining reaction. Following staining, plates are washed four times with 1% acetic acid to remove unbound dye and then allowed to air dry for 5 min. The stain is solubilized with 100 μl of 10 mM Tris pH 10.5 per well. Absorbance is read at 570 nm.
The percentage (%) of relative growth inhibition was calculated by comparing to DMSO treated only cells (100%). GI50's were determined for compounds with cytotoxic activity. The GI50 was calculated using GraphPad PRISM software (GraphPad Software, Inc., San Diego, Calif., USA).
The target in another test is T2, human PLK4 (Homo sapiens, UniProt O00444).
T2 construct: amino terminal GST fusion of residues 1-391 of human PLK4; made in house; host or cells: E. coli
T2 sequence (O00444 1-391): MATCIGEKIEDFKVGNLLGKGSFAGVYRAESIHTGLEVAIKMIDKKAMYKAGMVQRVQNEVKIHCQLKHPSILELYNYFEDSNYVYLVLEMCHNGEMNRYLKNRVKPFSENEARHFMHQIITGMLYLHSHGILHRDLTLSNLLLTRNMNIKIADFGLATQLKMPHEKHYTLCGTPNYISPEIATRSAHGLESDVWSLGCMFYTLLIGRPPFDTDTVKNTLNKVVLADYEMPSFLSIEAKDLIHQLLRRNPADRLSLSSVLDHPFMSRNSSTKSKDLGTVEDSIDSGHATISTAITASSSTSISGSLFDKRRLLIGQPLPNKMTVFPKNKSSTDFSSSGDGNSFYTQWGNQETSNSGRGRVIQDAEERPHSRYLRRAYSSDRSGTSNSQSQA
Kind of test: PLK4 inhibition assay (indirect ELISA). In kind it is biochemical. The following applies: 15 μM ATP. How it is done: Active PLK4 was purified from an E. coli expression system as an amino terminal GST fusion of residues 1-391 of human PLK4. The protein was purified from clarified cell extracts after induction at 15° C. overnight using glutathione sepharose, gel permeation chromatography, and ion exchange (Resource Q). The resulting protein was dephosphorylated with lambda phosphatase (NEB cat# P0753), and resolved from the phosphatase using gluthione sepharose. The dephosphorylated GST-PLK4 was stored in aliquots at −80° C. until use.
PLK4 activity was measured using an indirect ELISA detection system. Dephosphorylated GST-PLK4 (4 nM) was incubated in the presence of 15 μM ATP (Sigma cat# A7699), 50 mM HEPES-[…] pH 7.4, 10 mM MgCl2, 0.01% Brij 35 (Sigma cat# 03-3170), in a 96 well microtitre plate pre-coated with MBP (Millipore cat#30-011). The reaction was allowed to proceed for 30 minutes, followed by 5 washes of the plate with Wash Buffer (50 mM TRIS-Cl pH 7.4 and 0.2% Tween 20), and incubation for 30 minutes with a 1:3000 dilution of primary antibody (Cell Signaling cat# 9381). The plate was washed 5 times with Wash Buffer, incubated for 30 minutes in the presence of secondary antibody coupled to horse radish peroxidase (BioRad cat# 1721019, 1:3000 concentration), washed an additional 5 times with Wash Buffer, and incubated in the presence of TMB substrate (Sigma cat# T0440). The colourimetric reaction was allowed to continue for 5 minutes, followed by addition of stop solution (0.5 N sulphuric acid), and quantified by detection at 450 nm with either a monochromatic or filter based plate reader (Molecular Devices M5 or Beckman DTX880, respectively).
Compound inhibition was determined at either a fixed concentration (10 μM) or at a variable inhibitor concentration (typically 50 μM to 0.1 μM in a 10 point dose response titration). Compounds were pre-incubated in the presence of enzyme for 15 minutes prior to addition of ATP and the activity remaining quantified using the above described activity assay. The % Inhibition of a compound was determined using the following formula: % Inhibition=100×(1−(experimental value−background value)/(high activity control−background value)). The IC50 value was determined using a non-linear 4 point logistic curve fit (XLfit4, IDBS) with the formula: (A+(B/(1+((x/C)^D)))), where A=background value, B=range, C=inflection point, D=curve fit parameter.

Turning to `CC(C)[C@H](NC(=O)c1ccc2[nH]nc(-c3ccc4c(c3)CCC3(CCN(C)CC3)O4)c2c1)c1ccccc1Cl` [Example A250, (S)-N-(1-(2-chlorophenyl)-2-methylpropyl)-3-(1′-methylspiro[chroman-2,4′-piperidin]-6-yl)-1H-indazole-5-carboxamide], the IC50 was less than 100 nM at human TTK and less than 50 nM on human PLK4. Also, the figures for the GI50 (in the test on Breast cancer cells; in test [1]; in test [2]) were 100 to 500 nM, less than 100 nM and less than 100 nM, respectively.

With `CC(C)C[C@H](NC(=O)c1ccc2[nH]nc(-c3ccc(N4CCN(C5COC5)CC4)cc3)c2c1)c1ccccc1F` [Example A275, (S)-N-(1-(2-fluorophenyl)-3-methylbutyl)-3-(4-(4-(oxetan-3-yl)piperazin-1-yl)phenyl)-1H-indazole-5-carboxamide], the IC50 was less than 100 nM on human TTK and less than 50 nM on human PLK4. Besides, the GI50 (in the test on Breast cancer cells; in test [1]; in test [2]) was less than 100 nM each time.

Take `CN1CCC2(CCc3cc(-c4n[nH]c5ccc(C(=O)N[C@H](c6ccccn6)C6CCCC6)cc45)ccc3O2)CC1` [Example A253, (S)-N-(cyclopentyl(pyridin-2-yl)methyl)-3-(1′-methylspiro[chroman-2,4′-piperidin]-6-yl)-1H-indazole-5-carboxamide]: the IC50 was less than 100 nM at human TTK and less than 50 nM at human PLK4. The GI50 in the test on Breast cancer cells was 100 to 500 nM; in test [1] it was less than 100 nM; in test [2] it was less than 100 nM.

As for `CCC(CC)C(NC(=O)c1ccc2[nH]nc(-c3ccc(O[C@H]4C[C@H]5CC[C@@H](C4)N5C=O)cc3)c2c1)c1ccccn1` (stereo partly drawn) [Example A342, N-(2-ethyl-1-(pyridin-2-yl)butyl)-3-(4-(((1R,3R,5S)-8-formyl-8-azabicyclo[3.2.1]octan-3-yl)oxy)phenyl)-1H-indazole-5-carboxamide], the IC50 on human TTK is less than 100 nM; on human PLK4, less than 50 nM. The GI50 (in the test with Breast cancer cells; in test [1]; in test [2]) was less than 100 nM in each case.

In the case of `O=C(N[C@H](CCO)c1ccccc1)c1ccc2[nH]nc(-c3ccc(N4[C@@H]5CC[C@H]4COC5)cc3)c2c1` [Example A423, 3-(4-((1R,5S)-3-oxa-8-azabicyclo[3.2.1]octan-8-yl)phenyl)-N-((R)-3-hydroxy-1-phenylpropyl)-1H-indazole-5-carboxamide], the figures for the IC50 at human TTK and on human PLK4 were less than 100 nM and less than 50 nM, respectively. Moreover, the GI50 (in the test on Breast cancer cells; in test [1]; in test [2]) was less than 100 nM each time.

On to `CC(C)(C)C[C@H](NC(=O)c1ccc2[nH]nc(-c3ccc(N4CCN(C5COC5)CC4)cc3)c2c1)c1ccccc1` [Example A372, (S)-N-(3,3-dimethyl-1-phenylbutyl)-3-(4-(4-(oxctan-3-yl)piperazin-1-yl)phenyl)-1H-indazole-5-carboxamide], for which the IC50 on human TTK is less than 100 nM; on human PLK4, less than 50 nM. Further, the GI50 in the test with Breast cancer cells was 100 to 500 nM; in test [1], less than 100 nM; in test [2], less than 100 nM.

For the molecule `CC(C)CC(NC(=O)c1ccc2[nH]nc(-c3ccc(OC4CC5CCC(C4)N5C4COC4)cc3)c2c1)c1ccccn1` [Example A373, N-(3-methyl-1-(pyridin-2-yl)butyl)-3-(4-(((1R,3R,5S)-8-(oxetan-3-yl)-8-azabicyclo[3.2.1]octan-3-yl)oxy)phenyl)-1H-indazole-5-carboxamide], the values for the IC50 on human TTK and on human PLK4 were less than 100 nM and less than 50 nM, respectively. For the same molecule, the GI50 (in the test on Breast cancer cells; in test [1]; in test [2]) was 100 to 500 nM each time.

For `CN1[C@@H]2CC[C@H]1C[C@@H](Oc1ccc(-c3n[nH]c4ccc(C(=O)NCC5(c6cccs6)CCOCC5)cc34)cc1)C2` [Example A445, 3-(4-(((1R,3R,5S)-8-methyl-8-azabicyclo[3.2.1]octan-3-yl)oxy)phenyl)-N-((4-(thiophen-2-yl)tetrahydro-2H-pyran-4-yl)methyl)-1H-indazole-5-carboxamide], the results for the IC50 on human TTK and on human PLK4 were less than 100 nM and less than 50 nM, respectively. In addition, the GI50 in the test with Breast cancer cells was 100 to 500 nM; in test [1] it was less than 100 nM; in test [2] it was less than 100 nM.

`O=C(NCC1(c2ccccc2)COC1)c1ccc2[nH]nc(-c3ccc(OC4CCN(C5COC5)CC4)cc3)c2c1` [Example A487, 3-(4-((1-(oxetan-3-yl)piperidin-4-yl)oxy)phenyl)-N-((3-phenyloxetan-3-yl)methyl)-1H-indazole-5-carboxamide]: the IC50 is less than 100 nM at human TTK and less than 50 nM on human PLK4. Further, the GI50 (in the test on Breast cancer cells; in test [1]; in test [2]) was more than 500 nM throughout.

In the case of `CN1[C@@H]2CCC[C@H]1C[C@@H](Oc1ccc(-c3n[nH]c4ccc(C(=O)NC(c5ccccc5)C5CC5)cc34)cc1)C2` (stereo partly drawn) [Example A390, N-(cyclopropyl (phenyl)methyl)-3-(4-(((1R,3R,5S)-9-methyl-9-azabicyclo[3.3.1]nonan-3-yl)oxy)phenyl)-1 H-indazole-5-carboxamide], the IC50 on human TTK was less than 100 nM; on human PLK4 it was less than 50 nM. Further, the figures for the GI50 (in the test with Breast cancer cells; in test [1]; in test [2]) were 100 to 500 nM, less than 100 nM and less than 100 nM, respectively.

Consider `CC(C)C(NC(=O)c1ccc2[nH]nc(-c3ccc(O[C@H]4C[C@H]5CC[C@@H](C4)N5C)cc3)c2c1)c1ccccc1` (stereo partly drawn) [Example A285, N-(2-methyl-1-phenylpropyl)-3-(4-(((1R,3R,5S)-8-methyl-8-azabicyclo[3.2.1]octan-3-yl)oxy)phenyl)-1H-indazole-5-carboxamide], for which the IC50 on human TTK is less than 100 nM; on human PLK4, less than 50 nM. Moreover, the GI50 in the test on Breast cancer cells was 100 to 500 nM; in test [1], less than 100 nM; in test [2], less than 100 nM.

Consider `CN1[C@@H]2CC[C@H]1C[C@@H](Oc1ccc(-c3n[nH]c4ccc(C(=O)NC(c5ccccc5F)C5CC5)cc34)cc1)C2` (stereo partly drawn) [Example A282, N-(cyclopropyl(2-fluorophenyl)methyl)-3-(4-(((1R,3R,5S)-8-methyl-8-azabicyclo[3.2.1]octan-3-yl)oxy)phenyl)-1H-indazole-5-carboxamide], for which the values for the 50% inhibitory concentration (IC50) on human TTK and at human PLK4 were less than 100 nM and less than 50 nM, respectively. Further, the GI50 is 100 to 500 nM in the test with Breast cancer cells, less than 100 nM in test [1] and less than 100 nM in test [2].

In general, IC50 refers to the concentration at which inhibition is half-maximal. Broadly, the GI50 is the concentration giving 50% growth inhibition.
